Test results as given in ChEMBL document CHEMBL4257548, “Phenothiazine antioxidants increase mitochondrial biogenesis and frataxin levels in Friedreich's ataxia cells” (Medchemcomm, 2018).
Calls of active or inactive are those of the source. The rule behind the calls is not given here.

Assays:
GM15850 [1] = experiment: Inhibition of ATP production in human GM15850 cells at 2.5 uM after 24 hrs by Vialight reagent based luminescence assay; format: functional, cell-based
GM16216 [2] = experiment: Induction of mitochondrial biogenesis in human GM16216 cells assessed as increase in ratio of COX1 to SDH-A protein levels at 50 to 250 nM after 24 to 48 hrs by ELISA; format: functional, cell-based
GM16216 [3] = experiment: Effect on ATP production in human GM16216 cells at 0.1 to 0.5 uM after 24 hrs by Vialight reagent based luminescence assay; format: functional, cell-based
GM16216 [4] = experiment: Inhibition of ATP production in human GM16216 cells at 2.5 uM after 24 hrs by Vialight reagent based luminescence assay; format: functional, cell-based
GM15850 [5] = experiment: Cytotoxicity against human GM15850 cells at 0.25 to 2.5 uM after 24 to 48 hrs by live/dead staining-based flow cytometry; format: cell-based; settings: gm15850, 2.5 µM
GM15850 [6] = experiment: Induction of mitochondrial biogenesis in human GM15850 cells assessed as increase in ratio of COX1 to SDH-A protein levels at 50 to 250 nM after 24 to 48 hrs by ELISA; format: functional, cell-based
GM15850 [7] = experiment: Effect on mitochondrial membrane potential in human GM15850 cells assessed as loss of mitochondrial membrane potential at 0.25 uM after 16 hrs by JC1 staining based flow cytometry (reference value: 13%); format: functional
GM15850 [8] = experiment: Effect on ATP production in human GM15850 cells at 0.1 to 0.5 uM after 24 hrs by Vialight reagent based luminescence assay; format: functional, cell-based
GM16216 [9] = experiment: Increase in frataxin expression in human GM16216 cells at 50 to 250 nM after 24 to 48 hrs by ELISA; format: functional, cell-based
GM15850 [10] = experiment: Effect on mitochondrial membrane potential in human GM15850 cells assessed as intact mitochondrial membrane at 0.25 uM after 16 hrs by JC1 staining based flow cytometry (reference value: 87%); format: functional
GM15850 [11] = experiment: Increase in frataxin expression in human GM15850 cells at 50 to 250 nM after 24 to 48 hrs by ELISA; format: functional, cell-based
GM16216 [12] = experiment: Cytotoxicity against human GM16216 cells at 0.25 to 2.5 uM after 24 to 48 hrs by live/dead staining-based flow cytometry; format: cell-based; settings: gm16216, 2.5 µM
GM16216 [13] = experiment: Effect on mitochondrial membrane potential in human GM16216 cells assessed as loss of mitochondrial membrane potential at 0.25 uM after 16 hrs by JC1 staining based flow cytometry (reference value: 13%); format: functional
GM16216 [14] = experiment: Effect on mitochondrial membrane potential in human GM16216 cells assessed as intact mitochondrial membrane at 0.25 uM after 16 hrs by JC1 staining based flow cytometry (reference value: 87%); format: functional
GM15850 [15] = experiment: Effect on ATP production in human GM15850 cells at 0.5 uM after 24 hrs by Vialight reagent based luminescence assay; format: functional, cell-based
GM16216 [16] = experiment: Cytoprotection against DEM-induced toxicity in human GM16216 cells assessed as increase in cell viability pretreated for 16 hrs followed by DEM addition and measured after 5 hrs by live/dead staining based flow cytometry; format: functional
GM15850 [17] = experiment: Increase in ATP production in human GM15850 cells at 0.1 uM after 24 hrs by Vialight reagent based luminescence assay; format: functional, cell-based
GM16216 [18] = experiment: Effect on ATP production in human GM16216 cells at 0.5 uM after 24 hrs by Vialight reagent based luminescence assay; format: functional, cell-based
GM16216 [19] = experiment: Increase in ATP production in human GM16216 cells at 0.1 uM after 24 hrs by Vialight reagent based luminescence assay; format: functional, cell-based
GM15850 [20] = experiment: Cytoprotection against DEM-induced toxicity in human GM15850 cells assessed as increase in cell viability pretreated for 16 hrs followed by DEM addition and measured after 5 hrs by live/dead staining based flow cytometry; format: functional

Compound | inhibition (GM15850 [1]) | Activity (GM16216 [2]) | Activity (GM16216 [3]) | inhibition (GM16216 [4]) | Activity (GM15850 [5]) | Activity (GM15850 [6]) | Activity (GM15850 [7]) [%] | Activity (GM15850 [8]) | Activity (GM16216 [9]) | Activity (GM15850 [10]) [%] | Activity (GM15850 [11]) | Activity (GM16216 [12]) | Activity (GM16216 [13]) [%] | Activity (GM16216 [14]) [%] | Activity (GM15850 [15]) | Activity (GM16216 [16]) | Activity (GM15850 [17]) | Activity (GM16216 [18]) | Activity (GM16216 [19]) | Activity (GM15850 [20])
CCCCCCCCCCCCCc1cc2nc3ccc(N(C)C)cc3sc-2cc1=O | Active | Active | inactive | Active | Non-Toxic | Active | 13 | inactive | Active | 87 | Active | Non-Toxic | 13 | 87 |  |  |  |  |  | 
CCCCCCCCCCCc1cc2nc3ccc(N(C)C)cc3sc-2cc1=O | Active | Active |  | Active | Non-Toxic | Active | 14 |  | Active | 86 | Active | Non-Toxic | 14 | 86 | inactive | Dose-dependent effect | Active | inactive | Active | Dose-dependent effect
